Experimental data published in patent publication US9457057B2, “Methods for the prevention and treatment of burn injuries and secondary complications” (The General Hospital Corporation, priority 2009, dated 2016).

Legend:
[1] = test system: ATP synthesis rate (reaction PCr → γATP) in hindlimb skeletal muscle; experiment: In vivo 31P-NMR saturation transfer, ATP synthesis rate (reaction PCr→γATP), mouse burn model (Example 8)
Procedure: (§1) Materials and Methods. Male 6-week-old CD1 mice weighing 20-25 g were anesthetized by intraperitoneal (i.p.) injection of 40 mg/kg pentobarbital sodium. The left hind limb of all mice in all groups was shaved. Each burned mouse was subjected to a nonlethal scald injury of 3-5% total body surface area (TBSA) by immersing its left hind limb in 90° C. water for 3 sec.
(§2) NMR spectroscopy is described in detail in Padfield, et al., Proc Natl Acad Sci USA 102: 5368-5373 (2005). Briefly, mice were randomized into burn, burn+SS-31 peptide, control, and control+peptide groups. The SS-31 peptide (3 mg/kg) was injected intraperitoneally at 30 min prior to burn and a second injection immediately after the burn. NMR experiments were performed in a horizontal bore magnet (proton frequency 400 MHz, 21 cm diameter, Magnex Scientific) using a Bruker Avance console. A 90° pulse was optimized for detection of phosphorus spectra (repetition time 2 s, 400 averages, 4K data points). Saturation 90°-selective pulse trains (duration 36.534 ms, bandwidth 75 Hz) followed by crushing gradients were used to saturate the γ-ATP peak. The same saturation pulse train was also applied downfield of the inorganic phosphate (Pi) resonance, symmetrically to the γ-ATP resonance. T1 relaxation times of Pi and phosphocreatine (PCr) were measured using an inversion recovery pulse sequence in the presence of γ-ATP saturation. An adiabatic pulse (400 scans, sweep with 10 KHz, 4K data) was used to invert Pi and PCr, with an inversion time between 152 ms and 7651 ms.

[2] = test system: Sprague-Dawley rats; experiment: Wound contraction after burn injury, area of the scab (Example 3); assay type: in vivo, rat; details: 65° C. water 25 sec, 1 mg IP one hour prior to burn, 1 mg topical, 1 mg IP every 12 h for 72 h, time points ≧8 days post-burn, p=0.06 by ANOVA
Procedure: Sprague-Dawley rats (male, 300-350 g) were pre-treated with 1 mg SS-31 peptide administered IP (this corresponds to about 3 mg/kg) one hour prior to burn (65° C. water for 25 sec on the lower back), followed by topical treatment (1 mg on top of the wound), and 1 mg SS-31 peptide administered IP every 12 h for 72 h. Wounds were observed up to ˜3 weeks post-burn. In general, the wounds took the appearance of a hard scab, and for the purpose of this experiment, the area of the scab was quantified as a measure of wound size. […] Treatment with SS-31 slowed the wound contraction, which indicates the burn injury was less severe compared to burns in animals without the peptide treatment. As such, the aromatic-cationic peptides of the invention are useful in methods of treating wounds associated with a burn injury.

[3] = test system: redox state of the gastrocnemius muscle; experiment: Redox state of gastrocnemius muscle by nitroxide EPR after local burn (Examples 4 and 8); assay type: in vivo, mouse; details: mice
Procedure: A clinically relevant murine nonlethal local burn injury model was used to address whether aromatic-cationic peptides can prevent/attenuate the adverse effects of burn injury on mitochondrial dysfunction and ER stress. The redox state of the gastrocnemius muscle immediately below a local cutaneous burn (90° for 3 sec) was evaluated by nitroxide EPR.
Next, the effect of SS-31 peptide treatment administered IP 30 min before burn, and immediately after burn (3 mg/kg each dose) was tested.
as §1
EPR spectroscopy is described in detail in Khan et al. “Burn Trauma in skeletal muscle results in oxidative stress as assessed by in vivo electron paramagnetic resonance.” Mol Med Reports 1: 813-819 (2008). Briefly, mice were randomized into burn, burn+SS-31 peptide and control groups. The SS-31 peptide (3 mg/kg) was injected intraperitoneally at 0, 3, 6, 24, and 48 hours post-burn. EPR measurements were carried out with a 1.2-GHz EPR spectrometer equipped with a microwave bridge and external loop resonator specially designed for in vive experiments. The optimal spectrometer parameters were: incident microwave power, 10 mW; magnetic field center, 400 gauss; modulation frequency, 27 kHz. The decay kinetics of intravenously-injected nitroxide (150 mg/kg) were measured at the various time points, which indicated the mitochondrial redox status of the muscle.

[4] = test system: caspase-3; experiment: Liver caspase activity by an enzymatic reaction assay (Example 2); assay type: in vivo, mouse; details: C57BL mice, 30% TBSA burn, 5 mg/kg daily
Source text: FIG. 6 is a graph showing caspase-3 activity from the various treatment groups of Example 2.
(§3) Systemic inflammatory response syndrome (SIRS) and multiple organ failure (MOF) are leading causes of morbidity and mortality in severe burn patients. In this Example, the effects of the aromatic-cationic peptides of the invention on liver damage in a mouse model of burn injury were examined. Six to eight week old male C57BL mice were subjected to 30% total body surface area (TBSA) burn injury and subsequently injected daily with saline or SS-31 peptide (5 mg/kg body weight). A weight- and time-matched sham-burn group subjected to lukewarm (˜37° C.) water but otherwise treated exactly the same served as controls (FIG. 3). The liver tissues were collected 1, 3, and 7 days after burn injury treatment and used to examine apoptosis by TUNEL method, activated caspase protein levels by Western blots, and caspase activity by an enzymatic reaction assay.

[5] = test system: apoptosis in the liver; experiment: Liver apoptosis by TUNEL method after burn injury (Example 2); assay type: in vivo, mouse; details: C57BL mice, 30% TBSA burn, 5 mg/kg daily; days 1, 3, 7, effects most obvious on day 7 post-burn
Procedure: as §3

[6] = test system: UCP-1; experiment: UCP-1 expression in brown adipose tissue by Western blot (Example 7); assay type: in vivo, rat; details: rats, III degree 30% TBSA burns; 2 mg/kg priming then 4 mg/kg/day infused 7 days; p=0.057
Procedure: (§4) Methods. Sprague Dawley rats were randomly divided into 5 groups; sham (S), sham with saline treatment (SSal), sham with SS-31 treatment (SPep), burn with saline treatment (BSal) and burn with SS-31 treatment (BPep). In burn group, the back of animal was immersed into 100° C. water for 12 seconds to produce III degree 30% TBSA burns under general anesthesia. Sham burn was produced by immersing the lukewarm water in the same manner. Both groups of animals received 40 ml/kg intraperitoneal saline injection for the resuscitation following the injury. A venous catheter was placed surgically into the right jugular vein subsequent to sham or burn injury. SS-31 (2 mg/kg) or saline was injected as priming, and infused for 7 days (4 mg/kg/day) using osmotic pump (Durect, CA). […] The indirect calorimetry was performed for 24 hours at 6 days after burn injury in a TSE Indirect Calorimetry System (TSE Co. Germany), and VO2, VCO2 and energy expenditure were recorded every six minutes. Interscapullar brown adipose tissue was collected after the indirect calorimetry, and UCP-1 expression in the brown adipose tissue was evaluated by Western blot.

[7] = test system: Sprague Dawley rats; experiment: Indirect calorimetry 6 days after burn injury, 7-day infusion (Example 7); assay type: in vivo, rat; details: III degree 30% TBSA burns, 2 mg/kg priming then 4 mg/kg/day infused 7 days
Procedure: as §4

[8] = test system: Sprague Dawley rats; experiment: Indirect calorimetry after burn injury in a rat model (Example 1); assay type: in vivo; details: 30% TBSA full thickness burn, SS-31 2 mg/kg IV q12h for three days, n = 3
Procedure: Sprague Dawley rats were randomized into three groups; sham-burn (SB), burn with saline treatment (B) and burn with peptide treatment (BP). Catheters were surgically placed into jugular vein and carotid artery. B and BP animals received 30% total body surface area full thickness burns by immersing the dorsal part into 100° C. water for 12 seconds with immediate fluid resuscitation. BP animals received IV injection of SS-31 (2 mg/kg every 12 h) for three days (FIG. 1). The EE of the animals were constantly monitored for 12 hours in a TSE Indirect Calorimetry System (TSE Co. Germany).

[9] = test system: caspase-3; experiment: Activated caspase protein levels in liver by Western blots (Example 2); assay type: in vivo, mouse; details: C57BL mice, 30% TBSA burn, 5 mg/kg daily; day 3 and 7 post-burn
Procedure: as §3

[10] = test system: ATP synthesis rate (Pi→γATP) in hindlimb skeletal muscle; experiment: In vivo 31P-NMR saturation transfer, ATP synthesis rate (Pi→γATP), mouse burn model (Examples 8 and 10)
Procedure: as §1
as §2, with “An adiabatic pulse (400 scans, sweep with 10 KHz, 4K data) was used to invert Pi and PCr, with an inversion time between 152 ms and 7651 ms.” left out
Values are means±SE; ΔM/M0 is the fractional change in Pi magnetization as a result of saturation transfer; T1obs is the observed spin lattice relaxation time of Pi during γATP saturation in seconds; ATP synthesis is calculated as [Pi]×k; [Pi] is the concentration of Pi extrapolated from the baseline NMR spectrum, comparing Pi and γATP peaks and ATP concentration measured with bioluminescence assay; k is calculated as (1/T1obs)×(ΔM/M0); P-values (unpaired Student's t-test) are for comparisons between experimental and control groups; * indicates only one dose of SS-31 peptide (3 mg/kg) was injected to animals immediately after burn.

[11] = test system: mitochondrial aconitase; experiment: Mitochondrial aconitase activity in 5% TBSA mice burn model (Example 9); assay type: in vivo, mouse; details: burned animals
Source text: Mitochondrial aconitase is part of the TCA cycle and its activity has been directly correlated with the TCA flux. Moreover, its activity is inhibited by ROS and thus it is considered as an index of oxidative stress. Here we present the local and systematic effects of burn on the mitochondrial aconitase activity using a 5% TBSA mice burn model. The effects of a mitochondrial peptide (SS-31) had been also examined.

[12] = test system: protein oxidation; experiment: Liver protein oxidation by western blot (Example 2); assay type: in vivo, mouse; details: C57BL mice, 30% TBSA burn, 5 mg/kg daily
Source text: FIG. 7 is a photograph of a western blot analysis showing protein oxidation from the various treatment groups of Example 2.
as §3

[13] = Controls + Peptide (n = 5), unburned CD1 mice, 3 mg/kg IP two injections
[14] = 3-5% TBSA burn, 3 mg/kg IP, 6 h after burn, p<0.05, 3 mg/kg

## D-Arg-2′,6′-dimethyltyrosine-Lys-Phe-NH2 [SS-31]
[1]; Burn + Peptide (n = 8), 3 mg/kg IP 30 min prior to burn and immediately after the burn
  PCr: 3.25 ± 0.29 µmol/g
[1]; [13]
  ATP synthesis rate (reaction PCr → γATP): 0.50 ± 0.06 µmol/g/s
  PCr: 3.76 ± 0.51 µmol/g
[2]
  rate of wound contraction (area of the scab): slower rate of wound contraction
[3]; [14]
  redox status of burn+peptide group as compared to burn (EPR): significant increase (recovery) in the redox status
  redox status of burn+peptide group as compared to control (EPR): significant decrease in the redox status
[3]; local burn, 3 mg/kg IP 30 min before burn and immediately after burn, 6 h timepoint
  rate of nitroxide reduction in gastrocnemius muscle: significantly increased the rate of nitroxide reduction
[4]; day 3
  caspase activity in liver: trend for the increased caspase activity following burn injury to reverse
[4]; post-burn day 7
  caspase activity in liver: reduced the caspase activity to a level that was statistically not different from that of sham control group
[5]
  number of liver cells undergoing apoptosis (TUNEL): minimized the number of cells undergoing apoptosis
[6]
  UCP-1 expression in brown adipose tissue, decrease in BPep group compared to BSal group: 32%
[7]; p<0.01
  VO2, BPep group compared to BSal group: significantly attenuated
[7]; p<0.05
  VCO2, BPep group compared to BSal group: significantly attenuated
  energy expenditure, BPep group compared to BSal group: significantly attenuated
[8]
  RER: 0.669 ± 0.005
[9]
  activated form of caspase-3 protein levels in liver: reversed the increase in the activated form of caspase-3 protein levels on day 3 and 7 post-burn to the levels similar to those of sham control animals
[10]; Burn + Peptide (n = 8), 3 mg/kg IP 30 min before burn and immediately after burn, 6 hours after burn
  Pi: 2.93 ± 0.56 µmol/g
[10]; Burn + Peptide* (n = 8), only one dose 3 mg/kg immediately after burn
  Pi: 1.41 ± 0.26 µmol/g
[10]; [13]
  Pi: 5.49 ± 0.28 µmol/g
[11]
  mitochondrial aconitase activity: decreased mitochondrial aconitase activity up to the control levels
[12]
  protein oxidation following burn injury: decreased protein oxidation
